The values below are quoted from earlier work in patent US11229230B2, “Antioxidant-enriched multivitamin composition and methods of use” (Callion Pharma, LLC, priority 2016, dated 2022).

Data set [1] deals with cystic fibrosis. As to conditions: oral treatment, Phase II clinical study.
The test system of data set [2] is cystic fibrosis patients. As to conditions: inhaled.

With `CC(=O)N[C@@H](CS)C(=O)O` [N-acetylcysteine], the lung function entry in data set [1] was “did not improve lung function”.
Consider `N[C@@H](CCC(=O)N[C@@H](CS)C(=O)NCC(=O)O)C(=O)O` [glutathione], for which the “effectiveness in cystic fibrosis” value in data set [2] is listed as “has not been effective”.
